Literature values as cited in patent US20250092340A1, “METHOD FOR INDUSTRIALLY PRODUCING MOGROSIDE, FRUCTUS MOMORDICAE SUGAR/WINE AND MANNITOL FROM FRESH FRUCTUS MOMORDICAE” (priority 2022, published 2025).

Settings: background statement

Row | SMILES | sweetness relative to sucrose
1 | C[C@H](CC[C@@H](O[C@@H]1O[C@H](CO)[C@@H](O)[C@H](O)[C@H]1O[C@@H]1O[C@H](CO)[C@@H](O)[C@H](O)[C@H]1O)C(C)(C)O)[C@H]1CC[C@@]2(C)[C@H]3CC=C4[C@@H](CC[C@H](O[C@@H]5O[C@H](CO[C@@H]6O[C@H](CO)[C@@H](O)[C@H](O)[C@H]6O)[C@@H](O)[C@H](O)[C@H]5O)C4(C)C)[C@]3(C)[C@H](O)C[C@]12C [mogroside IV] | 126 folds of that of sucrose
2 | C[C@H](CC[C@@H](O[C@@H]1O[C@H](CO[C@@H]2O[C@H](CO)[C@@H](O)[C@H](O)[C@H]2O)[C@@H](O)[C@H](O)[C@H]1O[C@@H]1O[C@H](CO)[C@@H](O)[C@H](O)[C@H]1O)C(C)(C)O)[C@H]1CC[C@@]2(C)[C@@H]3CC=C4[C@@H](CC[C@H](O[C@@H]5O[C@H](CO[C@@H]6O[C@H](CO)[C@@H](O)[C@H](O)[C@H]6O)[C@@H](O)[C@H](O)[C@H]5O)C4(C)C)[C@]3(C)[C@H](O)C[C@]12C [mogroside V] | 256-344 folds of that of sucrose
